In patent US10537541B2, “Treatment of focal segmental glomerular sclerosis (FSGS) using therapeutically effective oral doses of 10-nitro-9(E)-octadec-9-enoic acid” (Complexa, Inc., priority 2015, dated 2020):

Columns and labels:
[1] = tested on: deoxycorticosterone acetate (DOCA)/salt-induced model of FSGS; assay: DOCA salt study: urinary isoprostane and tetranor-PGDM by LC-MS; type: in vivo, mice (129/sv strain); conditions: DOCA/salt mice; end time point
Description: (§1) Induction of model: Male mice (129/sv strain) were purchased from Taconic Labs. The animals were uninephrectomized (Unx) at 6 weeks of age by the vendor and shipped one week after surgery. At 2 weeks post Unx, a DOCA or placebo pellet (21-day release pellets, 50 mg/pellet, Innovative Research of America, Sarasota, Fla.) was implanted s.c. All mice were then placed on a semisynthetic diet which contained a moderate fat content and a low phytoestrogen/anti-oxidant level, which approximates a normal human diet (4). A second DOCA or placebo pellet was implanted three weeks later.
(§2) Treatment: Mice were treated with placebo, 10-nitro-9(E)-octadec-9-enoic acid at a dose of 2.5 and 12.5 mg/kg, or enalapril (standard of care) for 4 weeks by oral gavage starting 2 weeks after the first DOCA implantation. One percent NaCl in tap water was given to each group except the sham control group. Body weight was measured weekly, and doses were readjusted based on the current body weight. Urine and blood samples were collected prior to treatment and at week 2 and 4 of treatment. Mice were terminated at week 4. Data is presented as the mean+SEM for the number of animals listed in each group.
Isoprostanes are a unique series of prostaglandin-like compounds formed in vivo via a non-enzymatic mechanism involving the free radical-initiated peroxidation of arachidonic acid. It has been shown that 8-iso-PGF2a (15-F2t-isoprostane) is the isoprostane that correlates best with increasing oxidative stress. Therefore, to assess the effect of treatment on oxidative stress, this isoform was measured using LC-MS. Also measured was tetranor-PGDM, a urinary metabolite of prostaglandin D2. […] On the other hand, elevated tetranor-PGDM was lowered with treatment of 10-nitro-9(E)-octadec-9-enoic acid and enalapril at the end time point (FIG. 18).

[2] = tested on: deoxycorticosterone acetate (DOCA)/salt-induced model of FSGS; assay: DOCA salt study: RT-PCR analysis of kidney gene expression; type: in vivo, mice (129/sv strain); conditions: DOCA/salt mice kidney
Description: as §1, §2
RT-PCR Analysis of Gene Expression: A slice of kidney from each mouse was placed in Trizol solution (Invitrogen) immediately after harvesting and stored at −80° C. until analysis. Tissues were homogenized using a bead mill in 0.5 ml of Trizol solution and total RNA was extracted with chloroform (Sigma) and purified using standard RNeasy mini kit (Qiagen), with on column DNase 1 (Qiagen) digestion to avoid non-specific fluorescence emission derived from the recognition of contaminating genomic DNA by the probe, according to manufacturer's recommendation. RNA samples were eluted in 30 μl of nuclease-free water and quantified using a Nanodrop. cDNA was generated from 2 μg of RNA by using Clontech Sprint PowerScript reagents according to manufacturer's protocol. Fluorogenic probes specific for genes assayed in the report were purchased from Applied Biosystems. PCR amplification and analysis of PCR reaction were performed and monitored using an ABI Prism 7900HT Sequence Detection System (TaqMan, Perkin-Elmer Applied Biosystem). Data analysis was carried out by using the Sequence Detection Systems v2.3 program (Applied Biosystems). For each cDNA sample the Ct value of each target sequence was normalized to reference gene (Ribosomal RNA-18S), and shown as fold changes to control group. Statistical analyses for gene expression data was performed using a two-tailed Student's t-test.

[3] = tested on: deoxycorticosterone acetate (DOCA)/salt-induced model of FSGS; assay: DOCA/salt-induced mouse model of FSGS: renoprotection, body weight, blood pressure, organ/body weight ratios; type: in vivo, mice (129/sv strain); conditions: DOCA/salt mice, 4 weeks
Description: 10-nitro-9(E)-octadec-9-enoic acid, given orally after onset of renal injury, was evaluated for efficacy in a model for Focal Segmental Glomerular Sclerosis (FSGS) in humans. […] Mice were uni-nephrectomized and, after two weeks, implanted subcutaneously with DOCA (50 mg, 21-day release) or placebo sustained release pellets, with pellet replacement 3 weeks later. All groups, except the sham control group, also received 1% NaCl in tap water. 10-nitro-9(E)-octadec-9-enoic acid (daily oral gavage, 2.5 or 12.5 mg/kg) or enalapril (20 mg/kg/day in drinking water) treatments began 2 weeks after the first DOCA implantation and continued for 4 weeks. Enalapril was included for comparison because it is used as standard of care for FSGS and this is a positive control for the model.
as §1, §2

[4] = tested on: deoxycorticosterone acetate (DOCA)/salt-induced model of FSGS; assay: DOCA salt study: histological assessment of kidney; type: in vivo, mice (129/sv strain); conditions: DOCA/salt mice; enalapril 20 mg/kg/d in drinking water, 4 weeks
Description: as §1, §2
Histological Assessment: Formalin fixed, paraffin embedded kidneys were sectioned at 3 microns and stained with hematoxylin and eosin (H&E), periodic acid-Schiff (PAS) and Masson's Trichrome for histological analysis. Slides were blindly evaluated by an experienced pathology investigator. Glomerular and tubular pathology, interstitial inflammation and interstitial fibrosis were semi-quantitatively scored on a scale of 0-4 as follows: 0=normal; 1=mild; 2=moderate; 3=marked; 4=severe.
Glomerular hypertrophy was evaluated by measuring glomerular area and expressed as a mean value of 50 glomeruli per kidney. Glomerular hypertrophy is an important marker for diabetic and hypertensive-mediated chronic kidney disease. […] This finding is consistent with unchanged gene expression profile for podocyte markers (Table 2), and seems reasonable given that the disease was relatively modest.

[5] = tested on: deoxycorticosterone acetate (DOCA)/salt-induced model of FSGS; assay: DOCA salt study: serum and urine analyses; type: in vivo, mice (129/sv strain); conditions: DOCA/salt mice, enalapril 20 mg/kg/d in drinking water
Description: Induction of model: Male mice (129/sv strain) were purchased from Taconic Labs. The animals were uninephrectomized (Unx) at 6 weeks of age by the vendor and shipped one week after surgery. At 2 weeks post Unx, a DOCA or placebo pellet (21-day release pellets, 50 mg/pellet, Innovative Research of America, Sarasota, Fla.) was implanted s.c. All mice were then placed on a semisynthetic diet which contained a moderate fat content and a low phytoestrogen/anti-oxidant level, which approximates a normal human diet (4). A second DOCA or placebo pellet was implanted three weeks later. […] One percent NaCl in tap water was given to each group except the sham control group. Body weight was measured weekly, and doses were readjusted based on the current body weight. Urine and blood samples were collected prior to treatment and at week 2 and 4 of treatment. Mice were terminated at week 4. Data is presented as the mean+SEM for the number of animals listed in each group. Serum and urine analyses: Blood samples were collected from the retro-orbital sinus and samples were separated to serum. Serum and urine creatinine (enzymatic assay), blood urea nitrogen (BUN), and serum cholesterol were measured using a Cobas 400 plus bioanalyzer (Roche Diagnostics, IN). Urine samples were collected for 24 h using metabolic cages. Urine albumin was measured by immunoassay Albuwell M (Exocell Inc., Philadelphia, Pa.). Immuno-ELISA according to manufacturer's instructions was used to measure urine nephrin (Exocell Inc., Philadelphia, Pa.) and MCP-1 (Thermal Scientific, Waltham, Mass.). Kim-1 was measured using the E-90KIM Mouse ELISA Kit (Immunology Consultants Laboratory, Portland, Oreg.). Statistical analyses for serum and urine data was performed using a two-tailed Student's t-test.

[6] = tested on: deoxycorticosterone acetate (DOCA)/salt-induced model of FSGS; assay: DOCA salt study: glomerular filtration rate (inulin); type: in vivo, mice (129/sv strain); conditions: DOCA/salt mice; enalapril 20 mg/kg/d in drinking water, 4 week timepoint
Description: Induction of model: Male mice (129/sv strain) were purchased from Taconic Labs. The animals were uninephrectomized (Unx) at 6 weeks of age by the vendor and shipped one week after surgery. At 2 weeks post Unx, a DOCA or placebo pellet (21-day release pellets, 50 mg/pellet, Innovative Research of America, Sarasota, Fla.) was implanted s.c. All mice were then placed on a semisynthetic diet which contained a moderate fat content and a low phytoestrogen/anti-oxidant level, which approximates a normal human diet (4). A second DOCA or placebo pellet was implanted three weeks later. […] One percent NaCl in tap water was given to each group except the sham control group. Body weight was measured weekly, and doses were readjusted based on the current body weight. Urine and blood samples were collected prior to treatment and at week 2 and 4 of treatment. Mice were terminated at week 4. Data is presented as the mean+SEM for the number of animals listed in each group. Glomerular Filtration Rate: Glomerular filtration rate (GFR) was performed at the 4 week timepoint using a FIT-GFR test kit for inulin according to manufacturer's instructions (BioPal, Worcester, Mass.). […] Serum was isolated and quantified by an inulin ELISA. Inulin serum clearance was determined by nonlinear regression using a one phase exponential decay formula according to manufacturer's instructions.

[7] = Pharmacokinetic interaction study with pravastatin and Vytorin in healthy males: PK; conditions: Vytorin 10 mg/20 mg, Day 12 with 10-nitro-9(E)-octadec-9-enoic acid 150 mg daily versus Day 2 alone
healthy male subjects = assay: Pharmacokinetic interaction study in healthy males: safety and tolerability; type: in vivo, human; conditions: pravastatin 40 mg, 10 healthy males
Description: Safety and tolerability was evaluated throughout the study. The timing of discharge was determined by the Investigator or designee based on safety and tolerability assessment. On dosing days, subjects remained in the research unit for a minimum of 1 h after dosing prior to discharge. On Day 4, on the first day of 10-nitro-9(E)-octadec-9-enoic acid dosing, subjects remained in the unit for 4 to 6 h after dosing prior to discharge to assess safety and tolerability.
Safety and PK assessments were evaluated throughout the study. During the in-house portion of the study, urine was collected over the 24-h period on Day 2 and Day 12.
Safety was evaluated by physical examinations; adverse events (AEs); vital signs (blood pressure, heart rate, respiratory rate); clinical laboratory values (hematology, biochemistry, and urinalysis), specifically, serum Mg and CPK and electrocardiograms (ECGs).
Triplicate ECGs were obtained just prior to the start of dosing on Day 1 and single ECGs were obtained at all other time points. The average of the 3 ECG interval measurements at the pre-dose time point was considered as baseline. All 12-Lead ECGs were obtained after the subject has rested in a fully supine position for at least 10 minutes. There were no clinically significant abnormalities reported on any electrocardiogram (ECG) parameter. There were no QT/QTcF interval prolongations observed during the study.

[8] = enalapril 20 mg/kg/d, normalized to 18S, fold changes to control group, mean ± SEM

In the case of CCOC(=O)[C@H](CCc1ccccc1)N[C@@H](C)C(=O)N1CCC[C@H]1C(=O)O [Enalapril, reference compound], the “urinary tetranor-PGDM” value [1] is reported as “lowered”, the “gene expression of MCP-1, osteopontin, collagen III, fibronectin and PAI-1 (mRNA, qRT-PCR)” value ([2]; enalapril 20 mg/kg/d in drinking water, 4 weeks) is reported as “neither the high dose 10-nitro-9(E)-octadec-9-enoic acid nor enalapril had an effect” and the Nephrin gene expression [2, 8] is reported as 1.091 ± 0.14. The Podocin gene expression [2, 8] was 0.9991 ± 0.095, the “blood pressure (mean arterial)” value ([3]; all treatments) was “none of the treatments, including enalapril, had a significant effect” and the “kidney/body weight and heart/body ratios” value ([3]; enalapril 20 mg/kg/d in drinking water) was “no effect”. For the same compound, the “glomerular hypertrophy (glomerular area, mean of 50 glomeruli per kidney)” value [4] was “did not have an effect”, the “glomerulosclerosis: average scores and percent of glomerular damage (sclerosis)” value [4] was “not significantly reduced” and the “Kim-1 in urine, relative to the DOCA group” value [5] was “trended to be decreased”. For the same compound, the albumin excretion ([5]; 4 weeks) was “markedly reduced”, the plasma cholesterol ([5]; 4 weeks) was “reduced” and the urinary nephrin levels ([5]; 4 weeks) was “markedly reduced”. The “GFR (inulin method)” value [6] was “trend toward an increase”.

In the case of O=C1[C@H](CC[C@H](O)c2ccc(F)cc2)[C@@H](c2ccc(O)cc2)N1c1ccc(F)cc1 [ezetimibe], the “decrease of mean AUC(0-t) on co-administration” value [7] is reported as 5% and the “decrease of mean Cmax on co-administration” value [7] is reported as 20%.

For CC[C@H](C)C(=O)O[C@H]1C[C@H](O)C=C2C=C[C@H](C)[C@H](CC[C@@H](O)C[C@@H](O)CC(=O)O)[C@H]21 [pravastatin, reference compound], the “subjects with abdominal discomfort after administration” value (healthy male subjects) was 1 subject.

For CCC(C)(C)C(=O)O[C@H]1C[C@@H](C)C=C2C=C[C@H](C)[C@H](CC[C@@H]3C[C@@H](O)CC(=O)O3)[C@H]21 [simvastatin], the “increase of mean AUC(0-t) on co-administration” value [7] was 25% and the “increase of mean Cmax on co-administration” value [7] was 10%.
